Results as given in PubChem BioAssay AID248 (DTP/NCI, 2004).
Where “and” joins values, the source holds several entries; their conditions need not be identical. Equal values may be shown once. Toxic doses and inconclusive results are not listed. Rule as the data show it: active = T/C of 150% or more; inactive = T/C below 125%.

System: L1210 leukemia ip in BDF1 mice, survival T/C
Assay: NCI In Vivo Anticancer Drug Screen. Data for tumor model L1210 Leukemia (intraperitoneal) in B6D2F1 (BDF1) mice
Conditions: endpoint: mean survival time, higher = longer survival
Outline: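 Survival endpoint. Drug-treated group vs vehicle group, expressed as T divided by C. Tumor passaged by transplantation.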

[1] = dose: 100.0 mg/kg/injection, schedule: Q01DX009 (ip), vehicle: saline with Tween-80
[2] = dose: 100.0 mg/kg/injection, schedule: Q04DX003 (ip), vehicle: saline with Tween-80
[3] = dose: 200.0 mg/kg/injection, schedule: Q01DX009 (ip), vehicle: saline with Tween-80
[4] = dose: 400.0 mg/kg/injection, schedule: Q01DX009 (ip), vehicle: saline with Tween-80
[5] = dose: 400.0 mg/kg/injection, schedule: Q04DX003 (ip), vehicle: saline with Tween-80
[6] = dose: 100.0 mg/kg/injection, schedule: Q01DX001 (ip), vehicle: saline
[7] = dose: 200.0 mg/kg/injection, schedule: Q01DX001 (ip), vehicle: saline
[8] = dose: 400.0 mg/kg/injection, schedule: Q01DX001 (ip), vehicle: saline
[9] = dose: 100.0 mg/kg/injection, schedule: Q04DX002 (ip), vehicle: Klucel (hydroxypropylcellulose) (HPC)
[10] = dose: 200.0 mg/kg/injection, schedule: Q04DX002 (ip), vehicle: Klucel (hydroxypropylcellulose) (HPC)
[11] = dose: 400.0 mg/kg/injection, schedule: Q04DX002 (ip), vehicle: Klucel (hydroxypropylcellulose) (HPC)

Measured: T/C

Cc1ccc(C)c(NC(=O)NCc2ccc(Cl)cc2)c1
inactive: [1] 87 % of control | [2] 93 % of control | [3] 89 % of control | [4] 93 % of control | [5] 100 % of control

O=C(O)c1ccc(NC(c2ccccc2)c2ccc3cccnc3c2O)cc1 (configuration not stated)
inactive: [6] 86 % of control | [7] 89 % of control | [8] 86 % of control

CCN(CC)CC(C)(C)/C=N/N=C(N)N
inactive: dose: 15.0 mg/kg/injection, schedule: Q01DX Z (ip), vehicle: saline 98 % of control | dose: 30.0 mg/kg/injection, schedule: Q01DX Z (ip), vehicle: saline 91 % of control | dose: 60.0 mg/kg/injection, schedule: Q01DX Z (ip), vehicle: saline 105 % of control

Cc1nnc2nc3c(nn12)c1ccccc1n3C
inactive: dose: 6.25 mg/kg/injection, schedule: Q04DX002 (ip), vehicle: saline 100 % of control | dose: 12.5 mg/kg/injection, schedule: Q04DX002 (ip), vehicle: saline 103 % of control | dose: 25.0 mg/kg/injection, schedule: Q04DX002 (ip), vehicle: saline 96 % of control

CNc1cccc2c1C(=O)c1ccccc1C2=O
inactive: [9] 96 % of control | [10] 92 % of control | [11] 96 % of control

CCOc1ccc(-n2cnc3ccccc3c2=O)cc1CN(CCCl)CCCl
inactive: dose: 100.0 mg/kg/injection, schedule: Q01DX001 (ip), vehicle: Klucel (hydroxypropylcellulose) (HPC) 100 % of control | dose: 200.0 mg/kg/injection, schedule: Q01DX001 (ip), vehicle: Klucel (hydroxypropylcellulose) (HPC) 102 % of control | dose: 400.0 mg/kg/injection, schedule: Q01DX001 (ip), vehicle: Klucel (hydroxypropylcellulose) (HPC) 100 % of control

C1=C(c2ccc3ccccc3c2)Nc2ccccc2S1
inactive: dose: 100.0 mg/kg/injection, schedule: Q04DX002 (ip), vehicle: gum acacia 96 % of control | dose: 200.0 mg/kg/injection, schedule: Q04DX002 (ip), vehicle: gum acacia 96 % of control | dose: 400.0 mg/kg/injection, schedule: Q04DX002 (ip), vehicle: gum acacia 88 % of control

C[N+](C)(C)CCC[N+]1(C)CC2CC=CCC2C1 (configuration not stated)
inactive: dose: 100.0 mg/kg/injection, schedule: Q01DX Z (ip), vehicle: saline 97 % of control | dose: 145.0 mg/kg/injection, schedule: Q01DX Z (ip), vehicle: saline 97 % of control | dose: 220.0 mg/kg/injection, schedule: Q01DX Z (ip), vehicle: saline 87 % of control

Fc1cc(N(CCCl)CCCl)ccc1CNCCCNCc1ccc(N(CCCl)CCCl)cc1F
inactive: dose: 50.0 mg/kg/injection, schedule: Q01DX001 (ip), vehicle: carboxymethylcellulose (CMC) 93 % of control

C=CN1CCCC1=O (tested in a mixture with another compound)
inactive: [6] 101 % of control [middle of 4 runs] | [1] 92 % of control and 97 % of control | [7] 101 % of control [middle of 4 runs] | [3] 93 % of control and 100 % of control | [8] 101 % of control and 89 % of control and 98 % of control | [4] 93 % of control and 96 % of control

CCC(CO)ON=C(C)C (configuration not stated)
inactive: [6] 104 % of control | [7] 104 % of control | [8] 102 % of control

N#CSCc1ccc(Cl)cc1
inactive: dose: 25.0 mg/kg/injection, schedule: Q01DX009 (ip), vehicle: saline with Tween-80 92 % of control

COC(OC)c1[nH]c(=S)[nH]c(=O)c1C
inactive: [2] 107 % of control | dose: 200.0 mg/kg/injection, schedule: Q04DX003 (ip), vehicle: saline with Tween-80 105 % of control | [5] 105 % of control

CN(C1CCCCC1)C1CCCCC1
inactive: dose: 6.25 mg/kg/injection, schedule: Q01DX009 (ip), vehicle: Klucel (hydroxypropylcellulose) (HPC) 100 % of control | dose: 12.5 mg/kg/injection, schedule: Q01DX009 (ip), vehicle: Klucel (hydroxypropylcellulose) (HPC) 91 % of control | dose: 25.0 mg/kg/injection, schedule: Q01DX009 (ip), vehicle: Klucel (hydroxypropylcellulose) (HPC) 96 % of control and 107 % of control | dose: 25.0 mg/kg/injection, schedule: Q04DX003 (ip), vehicle: Klucel (hydroxypropylcellulose) (HPC) 97 % of control | dose: 50.0 mg/kg/injection, schedule: Q04DX003 (ip), vehicle: Klucel (hydroxypropylcellulose) (HPC) 102 % of control | dose: 75.0 mg/kg/injection, schedule: Q01DX001 (ip), vehicle: saline 108 % of control | dose: 100.0 mg/kg/injection, schedule: Q04DX003 (ip), vehicle: Klucel (hydroxypropylcellulose) (HPC) 97 % of control | dose: 150.0 mg/kg/injection, schedule: Q01DX001 (ip), vehicle: saline 109 % of control

CCS(=O)(=O)CCOC(=O)c1ccc([N+](=O)[O-])cc1
inactive: dose: 100.0 mg/kg/injection, schedule: Q01DX001 (ip), vehicle: carboxymethylcellulose (CMC) 100 % of control | dose: 200.0 mg/kg/injection, schedule: Q01DX001 (ip), vehicle: carboxymethylcellulose (CMC) 105 % of control | dose: 400.0 mg/kg/injection, schedule: Q01DX001 (ip), vehicle: carboxymethylcellulose (CMC) 98 % of control

CC(Cl)CN1Cc2ccccc2CCc2ccccc2C1 (configuration not stated)
inactive: dose: 25.0 mg/kg/injection, schedule: Q04DX002 (ip), vehicle: Klucel (hydroxypropylcellulose) (HPC) 101 % of control | dose: 50.0 mg/kg/injection, schedule: Q04DX002 (ip), vehicle: Klucel (hydroxypropylcellulose) (HPC) 92 % of control

N=C1SCc2ccccc21
inactive: dose: 100.0 mg/kg/injection, schedule: Q01DX009 (ip), vehicle: Klucel (hydroxypropylcellulose) (HPC) 104 % of control

CN(C)C(=O)c1ccc(NCc2cnc3nc(N)nc(N)c3n2)cc1
inactive: dose: 20.0 mg/kg/injection, schedule: Q01DX009 (ip), vehicle: Klucel (hydroxypropylcellulose) (HPC) 97 % of control | dose: 40.0 mg/kg/injection, schedule: Q01DX009 (ip), vehicle: Klucel (hydroxypropylcellulose) (HPC) 96 % of control | dose: 80.0 mg/kg/injection, schedule: Q01DX009 (ip), vehicle: Klucel (hydroxypropylcellulose) (HPC) 97 % of control

O=c1c2ccccc2[nH]c2c([N+](=O)[O-])cccc12
inactive: [1] 100 % of control | [3] 99 % of control | [4] 87 % of control

CCCOC(=O)c1ccc(NCC(C)(C)N(C)C)cc1
inactive: dose: 100.0 mg/kg/injection, schedule: Q04DX003 (ip), vehicle: saline 100 % of control | dose: 200.0 mg/kg/injection, schedule: Q04DX003 (ip), vehicle: saline 97 % of control | dose: 400.0 mg/kg/injection, schedule: Q04DX003 (ip), vehicle: saline 97 % of control

COc1ccc(/C=N/NC(=O)c2ccccc2N)cc1
inactive: [9] 98 % of control | [10] 106 % of control | [11] 106 % of control

CCOC(=O)N1C=Cn2c(cnc2C)C1OC (configuration not stated)
inactive: dose: 50.0 mg/kg/injection, schedule: Q01DX009 (ip), vehicle: water 93 % of control | dose: 100.0 mg/kg/injection, schedule: Q01DX009 (ip), vehicle: water 98 % of control | dose: 200.0 mg/kg/injection, schedule: Q01DX009 (ip), vehicle: water 95 % of control and 86 % of control

O=C(O)c1cc(N2C(=O)C=CC2=O)cc(N2C(=O)C=CC2=O)c1
inactive: dose: 11.1 mg/kg/injection, schedule: Q01DX Z (ip), vehicle: methylcellulose (MC) 102 % of control | dose: 16.6 mg/kg/injection, schedule: Q01DX Z (ip), vehicle: methylcellulose (MC) 102 % of control | dose: 25.0 mg/kg/injection, schedule: Q01DX Z (ip), vehicle: methylcellulose (MC) 94 % of control
